According to publication PMC9684509, “Construction of a synthetic methodology-based library and its application in identifying a GIT/PIX protein–protein interaction inhibitor” (Nature Communications, 2022):
Ends that are not written are not given here.

T1: GIT1 1–370 (Mus musculus, UniProt Q68FF6)
T1 construct: residues 1-370, E. coli BL21(DE3), N-terminal Trx-His6 tag removed by HRV-3C protease; for BLI biotin-labelled (BLI construct not restated)
T1 sequence (Q68FF6 1-370): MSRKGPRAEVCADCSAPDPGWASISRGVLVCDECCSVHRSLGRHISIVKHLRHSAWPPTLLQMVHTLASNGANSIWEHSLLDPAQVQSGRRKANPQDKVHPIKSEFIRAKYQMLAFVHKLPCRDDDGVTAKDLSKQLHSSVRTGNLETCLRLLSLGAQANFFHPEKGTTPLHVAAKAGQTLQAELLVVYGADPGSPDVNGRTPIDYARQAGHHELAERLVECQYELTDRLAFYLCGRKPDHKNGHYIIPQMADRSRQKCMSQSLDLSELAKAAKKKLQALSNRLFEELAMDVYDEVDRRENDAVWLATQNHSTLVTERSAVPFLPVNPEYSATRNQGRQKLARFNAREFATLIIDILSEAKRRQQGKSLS

T2: GIT1 1–370 (mouse) (mouse, UniProt Q68FF6 1-370)
T2 construct: GIT1, mouse, aa 1-370 (GenBank NM_001004144.1), cloned into pET32M3C; also called GIT1 protein; source: E. coli BL21 (DE3), purified (Ni-NTA, SEC, tag cleaved by HRV-3C, SEC); not shown: Trx, N-terminal, cleaved; His6, N-terminal, cleaved
T2 sequence (looked up): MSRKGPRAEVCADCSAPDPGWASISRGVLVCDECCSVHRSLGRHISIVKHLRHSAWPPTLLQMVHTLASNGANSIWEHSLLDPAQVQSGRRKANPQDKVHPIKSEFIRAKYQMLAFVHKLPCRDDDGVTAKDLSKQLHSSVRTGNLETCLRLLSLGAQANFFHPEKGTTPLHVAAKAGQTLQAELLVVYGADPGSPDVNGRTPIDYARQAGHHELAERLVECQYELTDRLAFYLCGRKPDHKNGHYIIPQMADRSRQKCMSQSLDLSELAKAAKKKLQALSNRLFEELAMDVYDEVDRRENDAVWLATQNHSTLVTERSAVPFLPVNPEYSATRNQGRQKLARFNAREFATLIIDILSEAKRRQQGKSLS

B1: FITC-β-Pix fluorescent peptide (peptide)
peptide: ALEEDAQILKVIEAYCTSAKT
modifications: not fully specified (N-terminus)
notes: source: synthetic peptide (China peptide, Shanghai)

These molecules were tested against T1, GIT1 1–370 (assay: fluorescence polarization competition with FITC-beta-Pix peptide). Details: not given.
Format: binding
CCOC(=O)[C@@H]1[C@@H]2C[C@@H](/C(=C\c3ccoc3)C2=O)[C@@]12C(=O)N(C)c1ccccc12 [14-5-18] showed a Ki of 1.8 µM. CCOC(=O)C1=C[C@H](c2cccc(C)c2)[C@H]2CC[C@@H](CC(=O)C3CCCCC3)O[C@H]2N1S(=O)(=O)c1ccc(C)cc1 [15-4-26] was tested, and the Ki was 1.5 µM.

These molecules were tested against T1, GIT1 1–370 (assay: biochemical). Details: read-out: IC50 in FP assay.
Design: Fluorescence polarization competition of FITC-beta-Pix peptide binding to GIT1 1-370
Procedure: GIT1 protein purification: Purification of GIT1 1–370 was performed following a published protocol. Briefly, the coding sequence of mouse GIT1 aa. 1–370 (GenBank: NM_001004144.1) was cloned into a pET32M3C (with an N-terminal Trx-His6 tag) vector. The recombinant protein was expressed in Escherichia coli BL21 (DE3) cells at 16 °C for 18 h induced by the isopropyl-β-D-thiogalactoside (IPTG) at a final concentration of 0.2 mM. The N-terminal Trx-His6-tagged GIT1 1–370 was purified by Ni^2+-NTA agarose affinity chromatography, followed by a Superdex-200 26/60 size-exclusion chromatography (GE Healthcare, Cytiva). To remove the Trx-His6 tag, GIT1 protein was cleaved by HRV-3C protease at 4 °C overnight and then purified by another step of SEC purification. The β-Pix-positive peptide (sequence: […]) and fluorescent peptide (sequence: FITC-(Acp)-[…]) were synthesized by China peptide (Shanghai, China). FP assay was used to monitor interactions between GIT1 and the compounds. For each assay, fresh protein stocks of GIT1 were thawed. Assay buffer contained 100 mM NaCl, 50 mM Tris pH 7.5. All the experiments were prepared in duplicates. The fluorescence intensities, parallel and perpendicular to the plane of excitation, were determined in Corning black 96-well NBS assay plates at room temperature. Fluorescence polarization was determined using a Multi-Mode Detection Platform (SpectraMax Paradigm, Molecular Devices, USA) with 485 nm excitation and 535 nm emission filters, the values were expressed in millipolarization units (mP). The binding affinity of the fluorescent peptide toward GIT1 was first determined via titration. For this purpose, 100 nM fluorescent peptide was contacted with serial dilutions of GIT1 (concentration ranging from 0.01 to 10 µM) in a final volume of 80 µL. KD value was stimulated from FP values and protein concentrations using GraphPad Prism 8.0 software. Competition binding assay was performed using 100 nM fluorescent peptide and optimal protein concentration (2.0 µM) for the measurement was calculated based on determined KD. Tested compounds were prepared as serial dilutions (0.1–500 µM) in DMSO. […] Additionally, the commercial compound library ChemDiv was screened as a control. The 20 compounds with the best docking scores were selected, purchased, and further subjected to FP binding assay to test their inhibitory abilities. […] The screening was performed at both virtual and entity levels. In the virtual screening, the docking model of the GIT1/β-Pix complex was constructed, and the binding pocket was generated based on the complex structure of GIT2/β-Pix that we solved recently (PDB ID: 6JMT)[42] (Fig. 2c). The virtual library (SMBL-V) was subjected to the Sybyl-X 2.0 program to perform high-throughput docking screening with GIT1 at the specific binding pockets. […] The Autodock and Sybyl-X 2.0 programs were used in combination for the second round of screening. Twenty top-ranked molecules were selected, and 9 compounds were synthesized (one structure for each scaffold) to perform further evaluation (N = 9) (see Source Data File for detailed structures and scores). For the entity library (SMBL-E) screening, a fluorescence polarization (FP)-binding assay[43],[44] was established to evaluate the inhibitory abilities of the compounds on the GIT1/β-Pix interaction (Fig. 2d). Several representative compounds (N = 100) with different scaffolds were chosen for screening. Together with the 9 compounds selected from virtual screening, a total of 109 compounds were subjected to the FP binding assay to perform the final evaluation. Compound 15-4-26 from the virtual library and compound 14-5-18 from the entity library with the best binding affinities (Ki values) were selected as candidates (Fig. 2e and Supplementary Fig. 3).
For Cc1cc(-c2ccc3ccccc3n2)nc2ccc3ccccc3c12 [0443-0206], the IC50 was over 1000 µM. Molecule CC(NS(=O)(=O)c1ccc2c(c1)C(=O)c1cc(S(=O)(=O)NC(C)C(=O)O)ccc1-2)C(=O)O (stereo not drawn) [2578-0155] has an IC50 of over 1000 µM. For C1C2CC3CC1CC(C2)C3Nc1nc2nonc2nc1NC1C2CC3CC(C2)CC1C3 (stereo not drawn) [3277-0083], the IC50 was over 100 µM. For Cn1c(=O)c2c(nc(Oc3cccc(C4Nc5ccc6ccccc6c5C5=C4C(=O)CC(C)(C)C5)c3)n2C)n(C)c1=O (stereo not drawn) [3277-0261], the IC50 was over 100 µM. CC1=CC(C)(C)Nc2ccc(OC(=O)C(Cc3ccccc3)N3C(=O)C4CCCCC4C3=O)cc21 (stereo not drawn) [4934-0001] showed an IC50 of over 1000 µM. Cn1c(=O)n(C)c2cc(CNC34CC5CC(C)(CC(C)(C5)C3)C4)ccc21 [D272-0692] gave an IC50 of over 1000 µM. Cc1ccc2cc3c(nc2c1)N(S(=O)(=O)c1ccc2c(c1)OCCO2)CC3 [D470-0645] gave an IC50 of over 100 µM. CN1C(=O)C(c2c(-c3ccc4ccccc4c3)[nH]c3[nH]c(=O)[nH]c(=O)c23)c2ccccc21 (stereo not drawn) [D517-1064] was tested, and the IC50 was over 1000 µM. CSc1cccc(NC(=O)Nc2ccc(Nc3cc(N(C)C)nc(C)n3)cc2)c1 [D638-0006F] gave an IC50 of over 1000 µM. With O=S(=O)(c1ccc2nc(Nc3ccc(Br)cc3F)ccc2c1)N1CCCCC1 [F052-0078] the IC50 was over 100 µM. In the case of O=C(Nc1cccc(OCc2cc(=O)n3cc(Cl)ccc3n2)c1)Nc1ccc2c(c1)OCCO2 [G756-2320], the IC50 is reported as over 100 µM. Work on O=C1Nc2ccccc2Oc2cc(Oc3ccc4c(c3)OCO4)c(S(=O)(=O)N3CCCC3)cc21 [J030-0445] yielded an IC50 of over 1000 µM. CCS(=O)(=O)c1ccc2c(c1)N(Cc1nc(-c3ccc4c(c3)OCO4)no1)C(=O)CO2 [L111-0329] showed an IC50 of over 1000 µM. Cc1cc(C)cc(S(=O)(=O)N2CCC3(CC2)NCCN=C3NCc2ccc(C(F)(F)F)cc2)c1 [L676-2486] gave an IC50 of over 100 µM. For CC(CC(=O)Nc1ccc2c(c1)OCCO2)S(=O)(=O)c1ccc2c(c1)NC(=O)CCS2 (stereo not drawn) [L705-0544], the IC50 was over 1000 µM.

Each molecule was assayed against T1, GIT1 1–370 (assay: biochemical). Details: read-out: ka.
Design: Biolayer interferometry, kinetic binding of 14-5-18 to GIT1
Text: We next investigated whether compounds 14-5-18 and 15-4-26 specifically perturbed the GIT1/β-Pix interaction in living cells. Firstly, we performed Cellular Thermal Shift Assay (CETSA) to preliminarily explore the target engagement of the compounds with GIT1 (Supplementary Fig. 4). CETSA relies on the fact that proteins are generally vulnerable to thermal conditions, while physical binding with other molecules could improve their stability. […] Therefore, further evaluations were only performed with 14-5-18, and 15-4-26 was suspended for its poor potential for drug development. […] Similarly, under thermal conditions from 30 to 90 °C, 14-5-18 (50 µM) also considerably stabilized GIT1, especially at high temperatures (Supplementary Fig. 4c). To further confirm whether 14-5-18 directly bound to GIT1, we used biolayer interferometry (BLI) assay to measure their interaction. […] Concentrations ranging from 25 to 400 μM were shown with the real-time response for each step of the kinetic assay. b Co-IP assay to indicate the interaction of GIT1 and β-Pix and the inhibitory effects of 14-5-18. […] GFP-GIT1 (green) and Myc-β-Pix were expressed followed by treatment with a fluorescent secondary antibody (red) in the MGC803 cell line to construct the fluorescence system. […] Plot fluorescence intensities of the area marked by the white lines in the left panels are shown in the right graphs. […]
In the case of CCOC(=O)[C@@H]1[C@@H]2C[C@@H](/C(=C\c3ccoc3)C2=O)[C@@]12C(=O)N(C)c1ccccc12 [14-5-18, ethyl (1S,2R,3R,4S,E)-6-(furan-3-ylmethylene)-1'-methyl-2',5-dioxospiro [bicyclo[2.2.1]heptane-2,3'-indoline]-3-carboxylate], the kon is reported as 200 M⁻¹ s⁻¹.

Same assay, conditions: read-out: kdis
For CCOC(=O)[C@@H]1[C@@H]2C[C@@H](/C(=C\c3ccoc3)C2=O)[C@@]12C(=O)N(C)c1ccccc12 [14-5-18, ethyl (1S,2R,3R,4S,E)-6-(furan-3-ylmethylene)-1'-methyl-2',5-dioxospiro [bicyclo[2.2.1]heptane-2,3'-indoline]-3-carboxylate], the koff was 0.00154 s⁻¹.

Target: T1, GIT1 1–370
Assay: biochemical
Design: fluorescence polarization competition, displacement of FITC-beta-Pix peptide from GIT1
Details: read-out: IC50 in FP assay
Remark: another data set of the same source
Procedure: GIT1 protein purification: Purification of GIT1 1–370 was performed following a published protocol. Briefly, the coding sequence of mouse GIT1 aa. 1–370 (GenBank: NM_001004144.1) was cloned into a pET32M3C (with an N-terminal Trx-His6 tag) vector. The recombinant protein was expressed in Escherichia coli BL21 (DE3) cells at 16 °C for 18 h induced by the isopropyl-β-D-thiogalactoside (IPTG) at a final concentration of 0.2 mM. The N-terminal Trx-His6-tagged GIT1 1–370 was purified by Ni^2+-NTA agarose affinity chromatography, followed by a Superdex-200 26/60 size-exclusion chromatography (GE Healthcare, Cytiva). To remove the Trx-His6 tag, GIT1 protein was cleaved by HRV-3C protease at 4 °C overnight and then purified by another step of SEC purification. The β-Pix-positive peptide (sequence: […]) and fluorescent peptide (sequence: FITC-(Acp)-[…]) were synthesized by China peptide (Shanghai, China). […] The fluorescence intensities, parallel and perpendicular to the plane of excitation, were determined in Corning black 96-well NBS assay plates at room temperature. Fluorescence polarization was determined using a Multi-Mode Detection Platform (SpectraMax Paradigm, Molecular Devices, USA) with 485 nm excitation and 535 nm emission filters, the values were expressed in millipolarization units (mP). The binding affinity of the fluorescent peptide toward GIT1 was first determined via titration. […]
O=C(NCc1ccco1)C1CN(C(=O)c2cccs2)CC12CCCCC2 (stereo not drawn) [S030-1757] gave an IC50 of over 1000 µM.

These molecules were tested against T2, GIT1 1–370 (mouse) (assay: fluorescence polarisation; direct titration: 100 nM fluorescent peptide with serial dilutions of GIT1 (0.01 to 10 µM), 80 µL; 100 mM NaCl, 50 mM Tris pH 7.5, room temperature). Details: both partners purified.
B1: binds.
